From patent publication US20100099676A1 (SHIONOGI & CO., LTD., priority 2006, published 2010)
pIC50: −log10 of the molar value.

How the values were obtained:
Test in all cases: Enzyme inhibiting activity of MMPs, fluorogenic peptide substrate
Format in all cases: biochemical
[1] = molecular target: T1, MMP-13 (Homo sapiens, UniProt P45452); conditions: APMA-activated proenzyme; substrate MOCAc-Pro-Leu-Gly-Leu-A2Pr(DNP)-Ala-Arg-NH2, fluorescent intensity; read-out: IC50 MMP-13
T1 construct: purchased Calbiochem (EMD/MERCK Biosciences)
Experimental: (§1) Various human MMPs (MMP-2, MMP-9 and MMP-13) were purchased from Calbiochem (EMD/MERCK Biosciences).
Since the purchased MMP-13 was Proenzyme, the activated one was used, which was incubated at 37° C. for 2 hours after the successive addition of an assay buffer (containing 50 mM Tris-HCl (pH7.6), 0.3 M NaCl, 10 mM CaCl2, 0.005% Brij35) and APMA (final concentration 1 mM) to the enzyme solution.
(§2) The enzyme activity of MMPs was measured according to the method described in C. Graham Knight, Frances Willenbrock and Gillian Murphy: A novel coumarin-labelled peptide for sensitive continuous assays of the matrix metalloproteinases: FEBS LETT., 296, (1992), 263-266. As a substrate, MOCAc-Pro-Leu-Gly-Leu-A2Pr(DNP)- Ala-Arg-NH2 (Peptide Institute, Inc. Osaka, Japan) was used, and the following four assays are performed per compound (inhibitor) for measuring the inhibiting activity.
(§3) (A) Substrate (synthetic substrate), enzyme (MMPs), inhibitor
(§4) (B) Substrate (synthetic substrate), inhibitor
(§5) (C) Substrate (synthetic substrate), enzyme (MMPs)
(§6) (D) Substrate (synthetic substrate)
(§7) In each assay, the fluorescent intensity was measured, and inhibition (%) was calculated by the following equation.
(§8) Inhibition (%)=[I−(A−B)/(C−D)]×100
(§9) IC50 indicates a concentration at which inhibition (%) is 50%.

[2] = molecular target: T2, MMP-9 (Homo sapiens, UniProt P14780); conditions: substrate MOCAc-Pro-Leu-Gly-Leu-A2Pr(DNP)-Ala-Arg-NH2, fluorescent intensity
T2 construct: purchased Calbiochem (EMD/MERCK Biosciences)
Experimental: as §1, §2, §3, §4, §5, §6, §7, §8, §9

[3] = molecular target: T3, MMP-2 (Homo sapiens, UniProt P08253); conditions: substrate MOCAc-Pro-Leu-Gly-Leu-A2Pr(DNP)-Ala-Arg-NH2, fluorescent intensity
T3 construct: purchased Calbiochem (EMD/MERCK Biosciences)
T3 sequence (P08253 110-660): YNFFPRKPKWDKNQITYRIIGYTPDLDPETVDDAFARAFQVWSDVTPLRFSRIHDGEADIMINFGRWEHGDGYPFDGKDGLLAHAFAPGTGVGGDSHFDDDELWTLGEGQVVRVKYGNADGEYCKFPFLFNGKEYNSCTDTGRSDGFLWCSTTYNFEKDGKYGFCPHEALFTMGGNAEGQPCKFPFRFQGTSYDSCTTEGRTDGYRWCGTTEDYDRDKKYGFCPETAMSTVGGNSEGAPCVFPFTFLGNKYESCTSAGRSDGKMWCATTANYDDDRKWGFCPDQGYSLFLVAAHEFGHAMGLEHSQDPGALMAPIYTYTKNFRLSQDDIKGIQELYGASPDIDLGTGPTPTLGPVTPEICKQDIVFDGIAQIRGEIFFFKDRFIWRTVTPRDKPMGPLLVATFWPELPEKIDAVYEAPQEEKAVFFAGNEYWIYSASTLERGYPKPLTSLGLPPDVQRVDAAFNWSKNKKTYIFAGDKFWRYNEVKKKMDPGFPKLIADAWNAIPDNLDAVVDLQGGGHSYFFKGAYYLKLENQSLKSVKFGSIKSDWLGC
Experimental: as §1, §2, §3, §4, §5, §6, §7, §8, §9

T2 sequence (P14780 94-707): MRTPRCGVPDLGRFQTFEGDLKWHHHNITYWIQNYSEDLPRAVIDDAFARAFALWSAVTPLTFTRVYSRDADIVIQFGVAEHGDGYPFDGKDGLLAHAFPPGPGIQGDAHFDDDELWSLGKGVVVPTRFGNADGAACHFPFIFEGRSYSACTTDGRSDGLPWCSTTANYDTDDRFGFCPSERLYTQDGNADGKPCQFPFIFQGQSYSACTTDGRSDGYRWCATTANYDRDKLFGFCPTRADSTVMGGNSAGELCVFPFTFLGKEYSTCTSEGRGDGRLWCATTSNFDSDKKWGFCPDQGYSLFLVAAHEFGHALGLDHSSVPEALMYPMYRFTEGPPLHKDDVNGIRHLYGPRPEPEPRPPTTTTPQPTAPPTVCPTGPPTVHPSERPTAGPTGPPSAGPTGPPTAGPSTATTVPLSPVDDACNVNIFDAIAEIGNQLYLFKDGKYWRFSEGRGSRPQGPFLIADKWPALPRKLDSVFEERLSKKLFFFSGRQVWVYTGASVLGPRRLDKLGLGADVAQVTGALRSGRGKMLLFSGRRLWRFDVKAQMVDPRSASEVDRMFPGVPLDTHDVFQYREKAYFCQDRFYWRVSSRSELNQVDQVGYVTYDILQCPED

pIC50 [1]	pIC50 [2]	pIC50 [3]	SMILES
9.00	< 5.00	6.00	C[C@@H](NS(=O)(=O)N1CCN(c2ccc(C#Cc3ccnc(C(=O)NCc4ccc5c(c4)oc(=O)n5C)c3)cc2)CC1)C(=O)O [Compound V-2, (R)-2-[4-(4-{2-(3-methyl-2-oxo-2,3-dihydrobenzoxazol-6-ylmethyl)-carbamoyl]-pyridin-4-ylethynyl}-phenyl)-piperazine-1-sulfonylaminol-proponic acid]
7.92	< 5.00	5.00 to 6.00	COc1ccc(CNC(=O)c2cc(C#Cc3ccc(N4CCN(S(=O)(=O)NC(C)(C)C(=O)O)CC4)cc3)ccn2)cc1 [Compound V-7, 2-(4-{4-[2-(4-methoxybenzylcarbamoyl)-pyridin-4-ylethynyl]-phenyl}-piperazine-1-sulfonylamino)-2-methylproponic acid]
8.15	< 5.00	5.00 to 6.00	CC(C)Cc1coc(-c2cc(C#Cc3ccc(N4CCN(S(=O)(=O)N[C@@H](C(=O)O)C(C)C)CC4)cc3)ccn2)n1 [Compound V-8, (R)-2-(4-{4-[2-(4-isobutyloxazol-2-yl)-pyridin-4-ylethynyl]-phenyl}-piperazine-1-sulfonylamino)-3-methylbutanoic acid]
7.85	< 5.00	5.00 to 6.00	C[C@@H](NS(=O)(=O)N1CCN(c2ccc(C#Cc3nc(-c4cccc(OCc5ccccc5)c4)cs3)cc2)CC1)C(=O)O [Compound V-11, (R)-2-(4-{4-[4-(3-benzyloxyphenyl)-thiazol-2-ylethynyl]-phenyl}-piperazine-1-sulfonylamino)-proponic acid]
8.40	< 5.00	5.00 to 6.00	COc1ccc(C#Cc2ccc(N3CCN(S(=O)(=O)N[C@H](C)C(=O)O)CC3)cc2)cc1-c1ncc(CC(=O)NCc2ccccc2)o1 [Compound V-12, (R)-2-[4-(4-{3-[5-(benzylcarbamoylmethyl)-oxazol-2-yl]-4-methoxyphenylethynyl}-phenyl)-piperazine-1-sulfonylamino]-proponic acid]
8.22	< 5.00	5.00 to 6.00	C[C@@H](NS(=O)(=O)N1CCN(c2ccc(C#Cc3nc(-c4cccc(C(=O)NCc5ccccc5)c4)cs3)cc2)CC1)C(=O)O [Compound V-14, (R)-2-(4-{4-[4-(3-benzylcarbamoylphenyl)-thiazol-2-ylethynyl]-phenyl}-piperazine-1-sulfonylamino)-proponic acid]
7.89	< 5.00	5.00 to 6.00	COc1ccc(F)cc1-c1csc(C#Cc2ccc(N3CCN(S(=O)(=O)N[C@H](C)C(=O)O)CC3)cc2)n1 [Compound V-15, (R)-2-(4-{4-[4-(5-fluoro-2-methoxyphenyl)-thiazol-2-ylethynyl]-phenyl}-piperazine-1-sulfonylamino)-proponic acid]
8.10	< 5.00	5.00 to 6.00	COCCOc1ccc(C#Cc2ccc(N3CCN(S(=O)(=O)N[C@H](C)C(=O)O)CC3)cc2)cc1-c1ncc(CC(=O)NCc2ccccc2)o1 [Compound V-19, (R)-2-(4-{4-[3-[5-(benzylcarbamoylmethyl)-oxazol-2-yl]-4-(2-methoxyethoxy)-phenylethynyl]-phenyl}-piperazine-1-sulfonylamino)-proponic acid]

SMILES	pIC50 [1]	pIC50 [2]	pIC50 [3]
CC(C)COc1ccc(C#Cc2ccc(N3CCN(S(=O)(=O)N[C@@H](C(=O)O)C(C)C)CC3)cc2)cc1C(=O)NCc1ccncc1 [Compound V-5, (R)-2-[4-(4-{4-isobutoxy3-[(pyridin-4-ylmethyl)carbamoyl]-phenylethynyl}-phenyl)-piperazine-1-sulfonylamino]-3-methylbutanoic acid]	7.74	< 5.00	5.00 to 6.00
CC(C)COc1ccc(C#Cc2ccc(N3CCN(S(=O)(=O)N[C@@H](C(=O)O)C(C)C)CC3)cc2)cc1C(=O)NCc1ccc(S(C)(=O)=O)cc1 [Compound V-6, (R)-2-(4-{4-[4-isobutoxy-3-(4-methanesulfonylbenzylcarbamoyl)-phenylethynyl]-phenyl}-piperazine-1-sulfonylamino)-3-methylbutanoic acid]	7.72	< 5.00	< 5.00
